One assay has as its target Cytochrome P450 2C9 (Homo sapiens, UniProt P11712). The conditions noted are these: Potency.
The target in assay [1] is T1, Voltage-gated N-type calcium channel alpha-1B subunit/Amyloid beta A4 precursor protein-binding family A member 1 (Homo sapiens, UniProt Q00975+Q02410). It is filed as protein assay.
The target of assay [2] is T1, Voltage-gated N-type calcium channel alpha-1B subunit/Amyloid beta A4 precursor protein-binding family A member 1. It is filed as protein assay. The source holds these as a separate data set.
Assay [3] can be described thus: growth inhibition of yeast DHODH-expressing 3D7 parasites – SYBR Green, dry powder samples, dose response (AID 1159570).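 Further: parasite growth measured after 72 hours of compound exposure.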 The format is functional, cell-based.
Assay [4] is described as follows: P. falciparum Dd2 growth inhibitors, dose response, SYBR Green, cherry-picked samples (AID 1159567). It is filed as functional, cell-based.
A short description of assay [5]: Dd2 malaria parasite growth inhibition potency – SYBR Green, dry powder samples, dose response (AID 1159566).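 Further: potency for growth inhibition with lower SYBR green DNA signal.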 It is filed as functional, cell-based.
The nature of assay [6]: growth inhibition of PfATP4-mutant resistant parasites – NITD609-resistant line, SYBR Green, dry powder, dose response (AID 1159571).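 Further: parasites synchronized at ring stage by sorbitol before testing.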 The format is functional, cell-based.
Another assay addresses T2, Estrogen receptor (Homo sapiens, UniProt P03372).
T2 sequence (P03372 whole entry): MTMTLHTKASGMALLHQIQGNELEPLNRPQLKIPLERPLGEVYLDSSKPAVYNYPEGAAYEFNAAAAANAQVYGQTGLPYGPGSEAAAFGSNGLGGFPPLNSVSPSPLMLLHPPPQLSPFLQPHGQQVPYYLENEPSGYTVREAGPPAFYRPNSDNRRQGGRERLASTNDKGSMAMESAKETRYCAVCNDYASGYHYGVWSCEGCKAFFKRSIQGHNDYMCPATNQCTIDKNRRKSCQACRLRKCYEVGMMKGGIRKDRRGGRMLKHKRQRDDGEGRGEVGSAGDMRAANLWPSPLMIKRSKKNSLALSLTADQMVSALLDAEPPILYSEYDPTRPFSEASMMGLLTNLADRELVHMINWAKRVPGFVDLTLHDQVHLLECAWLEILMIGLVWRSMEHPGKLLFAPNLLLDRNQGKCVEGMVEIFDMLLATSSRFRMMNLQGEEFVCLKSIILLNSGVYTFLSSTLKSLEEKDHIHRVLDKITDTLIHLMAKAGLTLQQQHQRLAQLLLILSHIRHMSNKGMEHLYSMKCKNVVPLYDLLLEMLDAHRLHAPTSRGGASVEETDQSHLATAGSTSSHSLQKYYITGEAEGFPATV

The nature of assay [7]: viability of uninfected HEp-2 cells – cell-based, HTS, cytotoxicity control for RSV inhibitor project, dose response (AID 2410). The conditions noted are these: human respiratory syncytial virus. The format is functional.
In another assay the target is Beta-galactosidase (Escherichia coli, UniProt Q8VNN2). Description: detection-enzyme interference by beta-gal modulators – biochemical, E. coli enzyme, set 3, artefact control for CCR6 antagonist project, dose response (AID 504712). The format is functional.
Sequence of Beta-galactosidase (Q8VNN2 whole entry): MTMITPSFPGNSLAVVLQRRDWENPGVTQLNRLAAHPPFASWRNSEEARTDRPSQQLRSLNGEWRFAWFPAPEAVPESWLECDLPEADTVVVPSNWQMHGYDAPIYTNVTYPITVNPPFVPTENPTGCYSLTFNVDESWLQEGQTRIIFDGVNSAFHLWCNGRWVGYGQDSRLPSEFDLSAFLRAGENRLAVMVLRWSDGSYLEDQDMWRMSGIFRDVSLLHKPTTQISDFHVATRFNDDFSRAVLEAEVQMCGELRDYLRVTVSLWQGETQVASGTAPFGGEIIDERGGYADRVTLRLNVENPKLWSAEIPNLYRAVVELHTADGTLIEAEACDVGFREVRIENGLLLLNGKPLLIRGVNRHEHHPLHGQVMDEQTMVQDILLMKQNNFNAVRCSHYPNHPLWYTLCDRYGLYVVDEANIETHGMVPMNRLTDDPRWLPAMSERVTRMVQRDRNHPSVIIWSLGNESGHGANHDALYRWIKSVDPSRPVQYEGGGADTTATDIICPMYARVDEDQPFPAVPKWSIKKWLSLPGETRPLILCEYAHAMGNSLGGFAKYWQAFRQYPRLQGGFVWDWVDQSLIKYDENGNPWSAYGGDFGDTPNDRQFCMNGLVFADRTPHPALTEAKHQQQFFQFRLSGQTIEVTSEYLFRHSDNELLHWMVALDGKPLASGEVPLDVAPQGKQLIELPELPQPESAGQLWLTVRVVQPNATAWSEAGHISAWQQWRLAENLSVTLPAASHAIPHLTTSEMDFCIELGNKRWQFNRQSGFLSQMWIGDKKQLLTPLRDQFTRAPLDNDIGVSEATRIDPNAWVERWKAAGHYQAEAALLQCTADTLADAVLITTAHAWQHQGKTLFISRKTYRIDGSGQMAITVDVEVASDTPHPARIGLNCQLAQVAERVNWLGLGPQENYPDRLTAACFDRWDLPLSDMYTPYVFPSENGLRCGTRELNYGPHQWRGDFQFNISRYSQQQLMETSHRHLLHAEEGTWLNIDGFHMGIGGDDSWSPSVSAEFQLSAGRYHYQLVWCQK
A further assay concerns the target Cytochrome P450 3A4 (Homo sapiens, UniProt P08684). The conditions noted are these: Potency.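 Further: confirmatory qHTS run detecting inhibitors and substrates of CYP3A4.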
The target in assay [8] is T3, Polyadenylate-binding protein 1 (Homo sapiens, UniProt P11940). Description: MLLE binding blockers, Cy5 peptide tracer – biochemical, fluorescence polarization, Cy5-PAM2 peptide, secondary, miRNA deadenylation inhibitor project, dose response (AID 602260). It is filed as functional. The conditions noted are these: read-out: IC50_Mean. (Fluorescence polarisation rises when a labelled molecule tumbles more slowly, as on binding a larger partner.)

The target of assay [9] is T3, Polyadenylate-binding protein 1. Kind of assay: MLLE domain peptide-binding blockers, IC50 – biochemical, fluorescence polarization, FITC-PAM2 peptide, dose response (AID 602259). It is filed as functional. To be noted: read-out: IC50_Mean.

Activity calls are given as the source filed them. A value given as a limit tells only on which side of the number the result lay.

By AC50 is commonly meant the concentration giving half of the maximal activity seen. As a reminder, the CC50 is the concentration that lowers cell viability or growth by half.

T1 sequence (Q00975 whole entry): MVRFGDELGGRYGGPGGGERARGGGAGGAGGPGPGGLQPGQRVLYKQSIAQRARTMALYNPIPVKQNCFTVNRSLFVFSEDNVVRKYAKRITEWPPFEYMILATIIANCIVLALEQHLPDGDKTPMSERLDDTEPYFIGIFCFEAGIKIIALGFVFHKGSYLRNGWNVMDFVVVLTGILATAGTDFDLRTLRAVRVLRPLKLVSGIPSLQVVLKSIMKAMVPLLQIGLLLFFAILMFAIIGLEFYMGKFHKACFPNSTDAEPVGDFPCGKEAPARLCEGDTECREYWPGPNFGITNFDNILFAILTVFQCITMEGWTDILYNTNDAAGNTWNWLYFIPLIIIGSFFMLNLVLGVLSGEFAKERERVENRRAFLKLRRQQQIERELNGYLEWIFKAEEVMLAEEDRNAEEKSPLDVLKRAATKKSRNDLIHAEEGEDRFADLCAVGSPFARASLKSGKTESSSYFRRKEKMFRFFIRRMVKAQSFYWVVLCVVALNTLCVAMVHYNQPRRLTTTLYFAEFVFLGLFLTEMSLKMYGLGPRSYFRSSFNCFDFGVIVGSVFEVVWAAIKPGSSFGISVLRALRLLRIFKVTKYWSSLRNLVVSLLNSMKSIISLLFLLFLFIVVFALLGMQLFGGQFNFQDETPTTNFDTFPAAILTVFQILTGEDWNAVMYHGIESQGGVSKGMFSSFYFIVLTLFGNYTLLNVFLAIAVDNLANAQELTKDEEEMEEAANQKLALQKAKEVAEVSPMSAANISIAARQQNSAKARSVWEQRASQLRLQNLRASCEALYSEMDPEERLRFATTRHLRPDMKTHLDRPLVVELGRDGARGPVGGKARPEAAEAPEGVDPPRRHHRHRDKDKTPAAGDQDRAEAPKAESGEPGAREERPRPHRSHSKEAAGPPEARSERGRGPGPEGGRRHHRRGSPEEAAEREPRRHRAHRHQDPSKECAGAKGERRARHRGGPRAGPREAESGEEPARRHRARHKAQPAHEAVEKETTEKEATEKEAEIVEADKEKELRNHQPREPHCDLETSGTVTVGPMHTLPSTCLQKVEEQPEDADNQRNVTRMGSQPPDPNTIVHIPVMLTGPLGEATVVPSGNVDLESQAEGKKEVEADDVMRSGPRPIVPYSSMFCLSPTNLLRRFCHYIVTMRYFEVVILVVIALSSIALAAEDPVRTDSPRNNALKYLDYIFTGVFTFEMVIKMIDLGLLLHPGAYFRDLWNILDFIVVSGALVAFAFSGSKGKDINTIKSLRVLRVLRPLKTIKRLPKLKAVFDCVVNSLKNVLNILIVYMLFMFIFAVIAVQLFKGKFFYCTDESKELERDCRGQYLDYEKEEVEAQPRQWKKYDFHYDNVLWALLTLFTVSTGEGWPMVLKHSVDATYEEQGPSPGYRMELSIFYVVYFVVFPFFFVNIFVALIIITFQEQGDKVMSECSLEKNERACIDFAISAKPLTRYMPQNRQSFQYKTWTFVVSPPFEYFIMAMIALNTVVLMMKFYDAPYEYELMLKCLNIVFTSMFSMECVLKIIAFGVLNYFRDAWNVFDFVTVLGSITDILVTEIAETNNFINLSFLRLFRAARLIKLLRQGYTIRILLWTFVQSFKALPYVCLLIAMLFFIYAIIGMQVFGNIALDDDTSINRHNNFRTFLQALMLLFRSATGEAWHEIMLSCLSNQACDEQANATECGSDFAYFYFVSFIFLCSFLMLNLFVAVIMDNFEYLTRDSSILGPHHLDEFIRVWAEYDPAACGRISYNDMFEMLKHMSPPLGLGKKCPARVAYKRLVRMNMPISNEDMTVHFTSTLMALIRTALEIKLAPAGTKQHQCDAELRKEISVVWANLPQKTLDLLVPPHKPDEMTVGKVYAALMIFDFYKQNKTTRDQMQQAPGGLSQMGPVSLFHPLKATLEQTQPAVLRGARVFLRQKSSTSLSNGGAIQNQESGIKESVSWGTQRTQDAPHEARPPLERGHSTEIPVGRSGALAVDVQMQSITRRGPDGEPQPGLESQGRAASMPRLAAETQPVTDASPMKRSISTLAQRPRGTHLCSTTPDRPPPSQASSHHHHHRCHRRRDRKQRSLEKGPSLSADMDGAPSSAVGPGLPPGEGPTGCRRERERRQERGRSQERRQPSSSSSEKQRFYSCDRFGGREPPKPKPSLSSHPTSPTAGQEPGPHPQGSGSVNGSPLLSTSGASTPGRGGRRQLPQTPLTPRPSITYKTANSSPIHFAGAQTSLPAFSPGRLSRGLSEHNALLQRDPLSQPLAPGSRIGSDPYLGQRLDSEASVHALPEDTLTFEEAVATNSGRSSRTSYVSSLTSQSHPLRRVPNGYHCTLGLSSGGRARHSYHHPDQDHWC
T1 sequence (Q02410 whole entry): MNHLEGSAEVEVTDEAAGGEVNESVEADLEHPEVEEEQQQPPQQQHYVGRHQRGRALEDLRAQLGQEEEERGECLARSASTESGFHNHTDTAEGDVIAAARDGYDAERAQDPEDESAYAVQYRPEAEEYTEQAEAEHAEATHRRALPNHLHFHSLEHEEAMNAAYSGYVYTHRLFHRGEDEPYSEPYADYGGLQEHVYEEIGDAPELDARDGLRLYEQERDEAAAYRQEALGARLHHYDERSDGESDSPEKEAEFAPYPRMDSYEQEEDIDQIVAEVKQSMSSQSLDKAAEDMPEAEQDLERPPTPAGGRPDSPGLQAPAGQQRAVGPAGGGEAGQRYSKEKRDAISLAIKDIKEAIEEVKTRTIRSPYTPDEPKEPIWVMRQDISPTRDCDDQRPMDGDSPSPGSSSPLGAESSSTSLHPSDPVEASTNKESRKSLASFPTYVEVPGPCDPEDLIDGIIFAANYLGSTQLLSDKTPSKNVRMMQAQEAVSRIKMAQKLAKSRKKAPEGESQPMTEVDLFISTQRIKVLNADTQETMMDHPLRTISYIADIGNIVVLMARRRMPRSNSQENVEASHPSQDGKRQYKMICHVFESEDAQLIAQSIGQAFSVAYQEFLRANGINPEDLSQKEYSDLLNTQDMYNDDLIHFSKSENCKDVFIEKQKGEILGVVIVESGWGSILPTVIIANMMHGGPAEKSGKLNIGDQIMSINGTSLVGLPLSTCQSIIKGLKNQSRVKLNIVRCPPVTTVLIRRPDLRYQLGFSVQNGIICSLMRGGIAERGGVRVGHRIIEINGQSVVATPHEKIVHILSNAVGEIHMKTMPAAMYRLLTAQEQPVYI
Sequence of Cytochrome P450 2C9 (P11712 whole entry): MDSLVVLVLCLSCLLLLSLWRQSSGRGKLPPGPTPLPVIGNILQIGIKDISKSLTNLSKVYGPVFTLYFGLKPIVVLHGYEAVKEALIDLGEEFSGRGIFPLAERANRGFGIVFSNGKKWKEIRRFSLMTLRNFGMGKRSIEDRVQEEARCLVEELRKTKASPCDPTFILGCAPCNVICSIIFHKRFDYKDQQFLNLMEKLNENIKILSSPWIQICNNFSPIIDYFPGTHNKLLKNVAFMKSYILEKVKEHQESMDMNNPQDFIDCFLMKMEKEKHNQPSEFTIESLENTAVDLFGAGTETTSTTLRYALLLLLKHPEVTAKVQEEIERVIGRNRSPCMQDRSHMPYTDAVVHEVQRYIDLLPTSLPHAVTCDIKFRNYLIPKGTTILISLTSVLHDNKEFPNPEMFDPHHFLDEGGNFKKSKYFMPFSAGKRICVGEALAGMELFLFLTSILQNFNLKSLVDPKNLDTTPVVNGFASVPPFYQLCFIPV

With `COc1ccc(/C=C/C2=CC3(C)CC2(C)C(c2ccc(OC)cc2)CC3=O)cc1` (stereo unspecified), the AC50 on Cytochrome P450 2C9 is 7.94 µM (inconclusive).

With `N#C/C(=C\c1ccc(OCCN2CCOCC2)cc1)C(=O)Nc1ccc(S(N)(=O)=O)cc1`, the IC50 in assay [1] is 7.74 µM (active); in assay [2], > 50 µM (inactive).

As to `CCCC(=O)N1CC2(C1)CN(S(=O)(=O)c1ccc(C)cc1)[C@@H](CO)c1[nH]c3cc(OC)ccc3c12`, the AC50 is 3.18 µM (active) in assay [3], 2.14 µM (active) in assay [4], 1.65 µM (active) in [5] and 1.67 µM (active) in assay [6].

Regarding `CSc1ccc(S(=O)(=O)Nc2cccc(F)c2)cc1`, the IC50 at Estrogen receptor is 23.7 µM (active).

In the case of `Cc1c(CC(=O)N2CCN(C(=O)C3COc4ccccc4O3)CC2)c(=O)oc2cc(O)cc(O)c12` (stereo unspecified), in the assay “cells”, the IC50 was 3.62 µM (active).

On to `COc1ccc(S(=O)(=O)Nc2cccc3c2O[C@H](CN(C)Cc2ccc(-c4ccccc4)cc2)[C@@H](C)CN([C@H](C)CO)C3=O)cc1`, for which the concentration at half-maximal activity (AC50) in [3] is 1.02 µM (active); in assay [4], 0.955 µM (active); in assay [5], 0.587 µM (active); in assay [6] it was 0.696 µM (active).

Turning to `COc1cc(-c2nnc(SCc3c(F)cccc3Cl)o2)cc(OC)c1OC`, the CC50 in assay [7] was 29.9 µM (active). In addition, in the assay “cells”, the IC50 is 9.1 µM (active).

For the compound `O=S(=O)(c1ccccc1F)N1CCC(c2nc(O)c3nnn(Cc4ccc5c(c4)OCCO5)c3n2)CC1`, the half-maximal cytotoxic concentration (CC50) in [7] is > 50 µM (active). Besides, in the assay “cells”, the IC50 is 45.3 µM (active).

With `O=[N+]([O-])c1ccc(N/N=C/c2cccc(O)c2O)cc1`, on Beta-galactosidase, the IC50 was > 66.6 µM (inactive).

`O=c1cc(-c2ccccc2O)oc2ccc3ccccc3c12`: the half-maximal activity concentration (AC50) at Cytochrome P450 3A4 and at Cytochrome P450 2C9 was 31.6 µM (inconclusive) each time.

Turning to `Cc1ccccc1Nc1nc(N)nc(CSc2nc3ccccc3c(=O)n2C)n1`, the IC50 at Estrogen receptor is > 50 µM (not active).

Take `CCCCn1c(N)c(C(=S)NC(=O)CC(C)(C)C)c(=O)n(C)c1=O`: the results for the IC50 (on Beta-galactosidase; in assay [8]; in [9]) were > 66.6 µM (inactive), > 66 µM (inactive) and > 66 µM (inactive), respectively.

For the compound `CCCOc1ccc(CN(CCC#N)C(=S)NC(=O)c2ccccc2)cc1`, the IC50 at Beta-galactosidase is > 66.6 µM (inactive).

Consider `CCOC(=O)N1CCN(C(=O)CCN2C(=O)/C(=C\c3cccc(OC)c3)SC2=S)CC1`, for which the IC50 in assay [1] is 28.4 µM (active); in assay [2], > 50 µM (inactive).

Take `Cc1ccc(-c2nc3cccnc3s2)cc1NS(=O)(=O)c1cccs1`: the CC50 in [7] is 20.4 µM (active). The IC50 in “cells” is 8.63 µM (active).

On to `NCCC[C@@H](CC(=O)N[C@@H]1CCNC[C@H]1C(=O)N[C@H](CC(=O)N[C@@H](CCC(=O)O)CC(=O)O)Cc1c[nH]c2ccccc12)NC(=O)C[C@H](CO)NC(=O)[C@@H]1CNCC[C@H]1N`, for which the AC50 at Cytochrome P450 2C9 was 39.8 µM (inconclusive).

On to `C[C@H](CO)N1C[C@H](C)[C@@H](CN(C)S(=O)(=O)c2ccc(C(F)(F)F)cc2)OCc2ccccc2-c2c(n(C)c3ccccc23)C1=O`, for which the AC50 was 0.777 µM (active) in assay [3], 0.95 µM (active) in [4], 0.599 µM (active) in [5] and 0.885 µM (active) in [6].

`COC(=O)NC(/C(C(=O)OC)=C(\C)NCc1ccccc1)c1ccc2ccccc2c1` (stereo unspecified): the AC50 was 3.98 µM (inconclusive) on Cytochrome P450 3A4 and 1 µM (inconclusive) on Cytochrome P450 2C9.

Source of the values: ChEMBL document CHEMBL1201862, “PubChem BioAssay data set” (2004).
